Assay results as given in ChEMBL document CHEMBL3045509, “Oxadiazolo pyrrolidine carboxamides as enoyl-ACP reductase inhibitors: design, synthesis and antitubercular activity screening” (2013).
Values after ≈ are worked out from the molar mass of the structure shown.

system: Mycobacterium tuberculosis; experiment: Antitubercular activity against Mycobacterium tuberculosis H37Rv MTCC 300 after 7 days by Alamar blue assay; format: functional; conditions: H37Rv MTCC 300, 168 h

Question: With `COc1ccc(-c2nnc(NC(=O)C3CC(=O)N(c4ccccc4)C3)o2)cc1` (stereo unspecified) as the compound, how does the MIC read?
Answer: 3.12 µg/mL (≈ 8.26 µM)

Question: With `O=C(Nc1nnc(-c2ccc([N+](=O)[O-])cc2)o1)C1CC(=O)N(c2ccccc2)C1` (stereo unspecified) as the compound, how does the MIC read?
Answer: 25 µg/mL (≈ 63.6 µM)

Question: With `Cc1ccc(-c2nnc(NC(=O)C3CC(=O)N(c4ccccc4)C3)o2)cc1` (stereo unspecified) as the compound, how does the MIC read?
Answer: 50 µg/mL (≈ 138 µM)

Question: How did the MIC turn out when `O=C(Nc1nnc(-c2ccc(Cl)cc2)o1)C1CC(=O)N(c2ccccc2)C1` (stereo unspecified) was run?
Answer: 25 µg/mL (≈ 65.3 µM)

Question: With `NNC(=O)c1ccncc1` [ISONIAZID] as the compound, how does the MIC read?
Answer: 0.25 µg/mL (≈ 1.82 µM)

Question: Which MIC does the source give for `O=C(Nc1nnc(-c2ccccc2)o1)C1CC(=O)N(c2ccccc2)C1` (stereo unspecified) here?
Answer: 12.5 µg/mL (≈ 35.9 µM)
